Assay results published in ChEMBL document CHEMBL1201862, “PubChem BioAssay data set” (2004).
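Tested at 5 concentrations; 48 h exposure; 96-well plates; endpoints linearly interpolated, else capped at highest concentration. Abbreviation: GI50, concentration required for 50% inhibition of growth.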 Active and inactive are the calls of the source. Rule as the data show it: active = GI50 up to about 1.1 µM and inactive = higher.

Columns and labels:
Experiment in all cases: NCI-60 cell line screen, 48 h
COLO 205 = tested on: COLO 205
UO-31 = tested on: UO-31
PC-3 = tested on: PC-3
SNB-19 = tested on: SNB-19
ACHN = tested on: ACHN
TK-10 = tested on: TK-10
SR = tested on: SR
OVCAR-8 = tested on: OVCAR-8
CAKI-1 = tested on: CAKI-1
A498 = tested on: A498
OVCAR-5 = tested on: OVCAR-5
NCI/ADR-RES = tested on: NCI/ADR-RES
HCT-15 = tested on: HCT-15
SNB-75 = tested on: SNB-75
SK-MEL-5 = tested on: SK-MEL-5
NCI-H460 = tested on: NCI-H460
SF-539 = tested on: SF-539
MDA-N = tested on: MDA-N
NCI-H522 = tested on: NCI-H522
786-0 = tested on: 786-0
T47D = tested on: T47D
HCT-116 = tested on: HCT-116
EKVX = tested on: EKVX
KM12 = tested on: KM12
SW-620 = tested on: SW-620
SK-OV-3 = tested on: SK-OV-3
HL-60 = tested on: HL-60
Malme-3M = tested on: Malme-3M
RPMI-8226 = tested on: RPMI-8226
SK-MEL-2 = tested on: SK-MEL-2
HCC 2998 = tested on: HCC 2998
MCF7 = tested on: MCF7
SN12C = tested on: SN12C
MDA-MB-231 = tested on: MDA-MB-231
CCRF-CEM = tested on: CCRF-CEM
K562 = tested on: K562
HT-29 = tested on: HT-29
IGROV-1 = tested on: IGROV-1
A549 = tested on: A549
NCI-H226 = tested on: NCI-H226
OVCAR-3 = tested on: OVCAR-3
SF-268 = tested on: SF-268
SK-MEL-28 = tested on: SK-MEL-28
Hs-578T = tested on: Hs-578T
MDA-MB-435 = tested on: MDA-MB-435
MOLT-4 = tested on: MOLT-4
SF-295 = tested on: SF-295
M14 = tested on: M14
UACC-257 = tested on: UACC-257
U-251 = tested on: U-251
DU-145 = tested on: DU-145
NCI-H23 = tested on: NCI-H23
BT-549 = tested on: BT-549
UACC-62 = tested on: UACC-62
HOP-62 = tested on: HOP-62
LOX IMVI = tested on: LOX IMVI
RXF 393 = tested on: RXF 393
OVCAR-4 = tested on: OVCAR-4
HOP-92 = tested on: HOP-92

CCOC(=O)c1ccc(-n2cnc(-c3ccc([N+](=O)[O-])cc3)c2)cc1
GI50 (COLO 205): > 100 µM (inactive)
GI50 (UO-31): > 100 µM (inactive)
GI50 (PC-3): > 100 µM (inactive)
GI50 (SNB-19): 35.7 µM (inactive)
GI50 (ACHN): > 100 µM (inactive)
GI50 (TK-10): 33.9 µM (inactive)
GI50 (SR): > 100 µM (inactive)
GI50 (OVCAR-8): > 100 µM (inactive)
GI50 (CAKI-1): > 100 µM (inactive)
GI50 (A498): > 100 µM (inactive)
GI50 (OVCAR-5): > 100 µM (inactive)
GI50 (NCI/ADR-RES): > 100 µM (inactive)
GI50 (HCT-15): > 100 µM
GI50 (SNB-75): 40.6 µM (inactive)
GI50 (SK-MEL-5): 25.3 µM (inactive)
GI50 (NCI-H460): > 100 µM (inactive)
GI50 (SF-539): > 100 µM (inactive)
GI50 (MDA-N): > 100 µM (inactive)
GI50 (NCI-H522): 13.1 µM (inactive)
GI50 (786-0): > 100 µM (inactive)
GI50 (T47D): 95.7 µM (inactive)
GI50 (HCT-116): 31.4 µM (inactive)
GI50 (EKVX): > 100 µM (inactive)
GI50 (KM12): > 100 µM (inactive)
GI50 (SW-620): 75.7 µM (inactive)
GI50 (SK-OV-3): > 100 µM (inactive)
GI50 (HL-60): > 100 µM (inactive)
GI50 (Malme-3M): 80.7 µM (inactive)
GI50 (RPMI-8226): > 100 µM (inactive)
GI50 (SK-MEL-2): > 100 µM (inactive)
GI50 (HCC 2998): > 100 µM (inactive)
GI50 (MCF7): 72.9 µM (inactive)
GI50 (SN12C): > 100 µM (inactive)
GI50 (MDA-MB-231): > 100 µM (inactive)
GI50 (CCRF-CEM): > 100 µM (inactive)
GI50 (K562): > 100 µM (inactive)
GI50 (HT-29): > 100 µM (inactive)
GI50 (IGROV-1): > 100 µM (inactive)
GI50 (A549): > 100 µM (inactive)
GI50 (NCI-H226): > 100 µM (inactive)
GI50 (OVCAR-3): 79.8 µM (inactive)
GI50 (SF-268): 56.2 µM (inactive)
GI50 (SK-MEL-28): > 100 µM (inactive)
GI50 (Hs-578T): > 100 µM (inactive)
GI50 (MDA-MB-435): > 100 µM (inactive)
GI50 (MOLT-4): > 100 µM (inactive)
GI50 (SF-295): > 100 µM (inactive)
GI50 (M14): > 100 µM (inactive)
GI50 (UACC-257): > 100 µM (inactive)
GI50 (U-251): 25.2 µM (inactive)
GI50 (DU-145): > 100 µM (inactive)
GI50 (NCI-H23): 82.6 µM (inactive)
GI50 (BT-549): 36.5 µM (inactive)
GI50 (UACC-62): > 100 µM (inactive)
GI50 (HOP-62): 94.2 µM (inactive)
GI50 (LOX IMVI): > 100 µM (inactive)

Clc1ccc(-c2nc(-c3ccc(Cl)cc3)[s+]s2)cc1
GI50 (COLO 205): > 100 µM (inactive)
GI50 (UO-31): > 100 µM (inactive)
GI50 (PC-3): > 100 µM (inactive)
GI50 (SNB-19): 50.5 µM (inactive)
GI50 (ACHN): 38.6 µM (inactive)
GI50 (TK-10): 24 µM (inactive)
GI50 (SR): 28.4 µM (inactive)
GI50 (OVCAR-8): 39.8 µM (inactive)
GI50 (CAKI-1): > 100 µM (inactive)
GI50 (A498): > 100 µM (inactive)
GI50 (OVCAR-5): > 100 µM (inactive)
GI50 (NCI/ADR-RES): 39.6 µM (inactive)
GI50 (HCT-15): 33.3 µM
GI50 (SK-MEL-5): 47.8 µM (inactive)
GI50 (NCI-H460): 37.6 µM (inactive)
GI50 (SF-539): 29.7 µM (inactive)
GI50 (MDA-N): > 100 µM (inactive)
GI50 (NCI-H522): 29.4 µM (inactive)
GI50 (786-0): 38 µM (inactive)
GI50 (T47D): > 100 µM (inactive)
GI50 (HCT-116): 51.4 µM (inactive)
GI50 (EKVX): 56.2 µM (inactive)
GI50 (KM12): 42.1 µM (inactive)
GI50 (SW-620): 55.8 µM (inactive)
GI50 (SK-OV-3): 41.1 µM (inactive)
GI50 (Malme-3M): 18.7 µM (inactive)
GI50 (RPMI-8226): 32.6 µM (inactive)
GI50 (SK-MEL-2): > 100 µM (inactive)
GI50 (HCC 2998): > 100 µM (inactive)
GI50 (MCF7): 37.3 µM (inactive)
GI50 (SN12C): 96.4 µM (inactive)
GI50 (RXF 393): 84.7 µM (inactive)
GI50 (MDA-MB-231): 46.9 µM (inactive)
GI50 (CCRF-CEM): 37 µM (inactive)
GI50 (K562): 24.3 µM (inactive)
GI50 (HT-29): 48.1 µM (inactive)
GI50 (IGROV-1): 19.7 µM (inactive)
GI50 (A549): 39.9 µM (inactive)
GI50 (OVCAR-3): 51.2 µM (inactive)
GI50 (SF-268): 37.2 µM (inactive)
GI50 (SK-MEL-28): 59.7 µM (inactive)
GI50 (Hs-578T): 46.7 µM (inactive)
GI50 (MDA-MB-435): 74.1 µM (inactive)
GI50 (MOLT-4): 26.6 µM (inactive)
GI50 (SF-295): > 100 µM (inactive)
GI50 (OVCAR-4): 27.7 µM (inactive)
GI50 (M14): > 100 µM (inactive)
GI50 (UACC-257): 55.2 µM (inactive)
GI50 (U-251): 30.4 µM (inactive)
GI50 (DU-145): > 100 µM (inactive)
GI50 (NCI-H23): 78 µM (inactive)
GI50 (BT-549): 72.9 µM (inactive)
GI50 (UACC-62): 52.2 µM (inactive)
GI50 (HOP-62): 34 µM (inactive)
GI50 (LOX IMVI): 33.1 µM (inactive)

O=C(c1ccccc1)C1C[C@H]2CO[C@H](c3ccccc3)N2C1=O (stereo partly specified)
GI50 (COLO 205): > 100 µM (inactive)
GI50 (UO-31): > 100 µM (inactive)
GI50 (PC-3): > 100 µM (inactive)
GI50 (SNB-19): > 100 µM (inactive)
GI50 (ACHN): > 100 µM (inactive)
GI50 (TK-10): > 100 µM (inactive)
GI50 (SR): > 100 µM (inactive)
GI50 (OVCAR-8): > 100 µM (inactive)
GI50 (CAKI-1): > 100 µM (inactive)
GI50 (OVCAR-5): > 100 µM (inactive)
GI50 (NCI/ADR-RES): > 100 µM (inactive)
GI50 (HCT-15): > 100 µM
GI50 (SNB-75): > 100 µM (inactive)
GI50 (SK-MEL-5): > 100 µM (inactive)
GI50 (NCI-H460): > 100 µM (inactive)
GI50 (SF-539): > 100 µM (inactive)
GI50 (MDA-N): > 100 µM (inactive)
GI50 (NCI-H522): > 100 µM (inactive)
GI50 (786-0): > 100 µM (inactive)
GI50 (T47D): > 100 µM (inactive)
GI50 (HCT-116): > 100 µM (inactive)
GI50 (EKVX): > 100 µM (inactive)
GI50 (KM12): > 100 µM (inactive)
GI50 (SW-620): > 100 µM (inactive)
GI50 (Malme-3M): > 100 µM (inactive)
GI50 (HOP-92): > 100 µM (inactive)
GI50 (RPMI-8226): > 100 µM (inactive)
GI50 (SK-MEL-2): > 100 µM (inactive)
GI50 (HCC 2998): > 100 µM (inactive)
GI50 (MCF7): > 100 µM (inactive)
GI50 (SN12C): > 100 µM (inactive)
GI50 (RXF 393): > 100 µM (inactive)
GI50 (MDA-MB-231): > 100 µM (inactive)
GI50 (CCRF-CEM): 99.3 µM (inactive)
GI50 (K562): > 100 µM (inactive)
GI50 (HT-29): > 100 µM (inactive)
GI50 (IGROV-1): > 100 µM (inactive)
GI50 (A549): > 100 µM (inactive)
GI50 (NCI-H226): > 100 µM (inactive)
GI50 (OVCAR-3): > 100 µM (inactive)
GI50 (SF-268): > 100 µM (inactive)
GI50 (SK-MEL-28): > 100 µM (inactive)
GI50 (Hs-578T): > 100 µM (inactive)
GI50 (MDA-MB-435): > 100 µM (inactive)
GI50 (MOLT-4): 97.9 µM (inactive)
GI50 (SF-295): > 100 µM (inactive)
GI50 (OVCAR-4): > 100 µM (inactive)
GI50 (M14): > 100 µM (inactive)
GI50 (UACC-257): > 100 µM (inactive)
GI50 (U-251): > 100 µM (inactive)
GI50 (DU-145): > 100 µM (inactive)
GI50 (NCI-H23): > 100 µM (inactive)
GI50 (BT-549): > 100 µM (inactive)
GI50 (UACC-62): > 100 µM (inactive)
GI50 (LOX IMVI): > 100 µM (inactive)
